The values below come from ChEMBL document CHEMBL6127116, “Discovery of Potent and Selective Blockers Targeting the Epilepsy-Associated KNa1.1 Channel” (J Med Chem, 2024).

The structures appear in SMILES notation.

The nature of data set [1]: Inhibition of KNa 1.1 (unknown origin). On the set-up: species or system Homo sapiens.
Another data set concerns HEK293. The experiment in a line: Cytotoxicity against HEK293 cells assessed as reduction in cell viability at 10 uM by CCK8 method relative to control. It counts as toxicity, cell-based. The note with it: human, hek293, 10 µM.
In data set [2] the target is Sodium channel protein type 5 subunit alpha (Homo sapiens, UniProt Q14524). The experiment in a line: Inhibition of Nav1.5 (unknown origin) expressed in HEK293T cells at 10 uM by patch-clamp electrophysiology method. It counts as cell-based.
Sequence of Sodium channel protein type 5 subunit alpha (Q14524 whole entry): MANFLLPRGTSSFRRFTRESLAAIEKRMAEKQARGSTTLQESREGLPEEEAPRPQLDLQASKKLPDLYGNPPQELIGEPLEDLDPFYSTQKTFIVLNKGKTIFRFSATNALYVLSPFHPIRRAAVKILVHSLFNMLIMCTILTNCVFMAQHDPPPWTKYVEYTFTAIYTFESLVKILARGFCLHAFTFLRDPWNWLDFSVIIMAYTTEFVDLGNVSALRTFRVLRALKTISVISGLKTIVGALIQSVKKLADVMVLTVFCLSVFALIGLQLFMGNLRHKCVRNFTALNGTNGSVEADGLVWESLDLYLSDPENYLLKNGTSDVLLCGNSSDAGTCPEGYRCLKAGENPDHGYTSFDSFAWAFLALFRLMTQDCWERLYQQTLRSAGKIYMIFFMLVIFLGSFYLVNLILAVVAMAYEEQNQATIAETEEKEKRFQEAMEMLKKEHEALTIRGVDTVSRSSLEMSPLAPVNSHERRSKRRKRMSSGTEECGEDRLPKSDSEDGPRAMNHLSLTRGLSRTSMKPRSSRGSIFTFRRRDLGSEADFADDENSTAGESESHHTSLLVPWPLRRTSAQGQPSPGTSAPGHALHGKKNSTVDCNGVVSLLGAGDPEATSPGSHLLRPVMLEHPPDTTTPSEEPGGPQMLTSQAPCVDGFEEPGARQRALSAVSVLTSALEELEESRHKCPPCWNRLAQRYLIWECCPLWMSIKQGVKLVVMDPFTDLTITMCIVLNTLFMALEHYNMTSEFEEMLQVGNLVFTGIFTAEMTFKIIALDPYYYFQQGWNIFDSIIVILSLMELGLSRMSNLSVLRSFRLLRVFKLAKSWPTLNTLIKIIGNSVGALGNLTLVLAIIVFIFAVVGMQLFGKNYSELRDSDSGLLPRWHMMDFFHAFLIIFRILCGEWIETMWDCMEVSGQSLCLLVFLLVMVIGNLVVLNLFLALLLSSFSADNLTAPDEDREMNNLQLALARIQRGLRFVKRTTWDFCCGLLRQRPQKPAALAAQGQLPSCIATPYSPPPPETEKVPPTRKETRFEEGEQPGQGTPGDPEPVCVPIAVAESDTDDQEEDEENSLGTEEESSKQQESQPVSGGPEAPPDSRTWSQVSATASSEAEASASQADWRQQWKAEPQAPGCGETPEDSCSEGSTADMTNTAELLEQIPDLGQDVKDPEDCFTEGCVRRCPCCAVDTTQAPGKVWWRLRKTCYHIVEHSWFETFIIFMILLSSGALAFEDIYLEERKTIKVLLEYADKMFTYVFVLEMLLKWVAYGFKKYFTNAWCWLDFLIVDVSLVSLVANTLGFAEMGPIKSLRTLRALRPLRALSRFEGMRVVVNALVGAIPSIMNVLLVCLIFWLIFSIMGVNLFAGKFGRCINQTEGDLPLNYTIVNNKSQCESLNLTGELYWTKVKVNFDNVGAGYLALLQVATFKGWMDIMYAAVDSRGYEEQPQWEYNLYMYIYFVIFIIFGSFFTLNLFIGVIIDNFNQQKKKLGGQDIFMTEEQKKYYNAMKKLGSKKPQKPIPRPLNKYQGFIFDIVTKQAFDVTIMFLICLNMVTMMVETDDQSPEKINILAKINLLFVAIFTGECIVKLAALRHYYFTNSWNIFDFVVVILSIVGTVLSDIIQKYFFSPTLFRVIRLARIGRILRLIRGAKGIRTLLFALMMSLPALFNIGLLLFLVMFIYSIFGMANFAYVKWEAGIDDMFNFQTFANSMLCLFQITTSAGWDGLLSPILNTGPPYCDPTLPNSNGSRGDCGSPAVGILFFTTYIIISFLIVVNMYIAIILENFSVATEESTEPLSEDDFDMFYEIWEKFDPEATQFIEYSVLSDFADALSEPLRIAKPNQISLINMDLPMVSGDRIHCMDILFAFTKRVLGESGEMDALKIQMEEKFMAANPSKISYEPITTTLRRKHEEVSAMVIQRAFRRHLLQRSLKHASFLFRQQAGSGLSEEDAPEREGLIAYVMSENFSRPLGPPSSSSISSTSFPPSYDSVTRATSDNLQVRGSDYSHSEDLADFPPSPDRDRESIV
The target of data set [3] is Voltage-gated inwardly rectifying potassium channel KCNH2 (Homo sapiens, UniProt Q12809). The data set is described as follows: Inhibition of human ERG expressed in Xenopus laevis oocytes at 10 uM by two-electrode voltage clamp method. It is filed as toxicity, cell-based. The following applies: oocyte.
Sequence of Voltage-gated inwardly rectifying potassium channel KCNH2 (Q12809 whole entry): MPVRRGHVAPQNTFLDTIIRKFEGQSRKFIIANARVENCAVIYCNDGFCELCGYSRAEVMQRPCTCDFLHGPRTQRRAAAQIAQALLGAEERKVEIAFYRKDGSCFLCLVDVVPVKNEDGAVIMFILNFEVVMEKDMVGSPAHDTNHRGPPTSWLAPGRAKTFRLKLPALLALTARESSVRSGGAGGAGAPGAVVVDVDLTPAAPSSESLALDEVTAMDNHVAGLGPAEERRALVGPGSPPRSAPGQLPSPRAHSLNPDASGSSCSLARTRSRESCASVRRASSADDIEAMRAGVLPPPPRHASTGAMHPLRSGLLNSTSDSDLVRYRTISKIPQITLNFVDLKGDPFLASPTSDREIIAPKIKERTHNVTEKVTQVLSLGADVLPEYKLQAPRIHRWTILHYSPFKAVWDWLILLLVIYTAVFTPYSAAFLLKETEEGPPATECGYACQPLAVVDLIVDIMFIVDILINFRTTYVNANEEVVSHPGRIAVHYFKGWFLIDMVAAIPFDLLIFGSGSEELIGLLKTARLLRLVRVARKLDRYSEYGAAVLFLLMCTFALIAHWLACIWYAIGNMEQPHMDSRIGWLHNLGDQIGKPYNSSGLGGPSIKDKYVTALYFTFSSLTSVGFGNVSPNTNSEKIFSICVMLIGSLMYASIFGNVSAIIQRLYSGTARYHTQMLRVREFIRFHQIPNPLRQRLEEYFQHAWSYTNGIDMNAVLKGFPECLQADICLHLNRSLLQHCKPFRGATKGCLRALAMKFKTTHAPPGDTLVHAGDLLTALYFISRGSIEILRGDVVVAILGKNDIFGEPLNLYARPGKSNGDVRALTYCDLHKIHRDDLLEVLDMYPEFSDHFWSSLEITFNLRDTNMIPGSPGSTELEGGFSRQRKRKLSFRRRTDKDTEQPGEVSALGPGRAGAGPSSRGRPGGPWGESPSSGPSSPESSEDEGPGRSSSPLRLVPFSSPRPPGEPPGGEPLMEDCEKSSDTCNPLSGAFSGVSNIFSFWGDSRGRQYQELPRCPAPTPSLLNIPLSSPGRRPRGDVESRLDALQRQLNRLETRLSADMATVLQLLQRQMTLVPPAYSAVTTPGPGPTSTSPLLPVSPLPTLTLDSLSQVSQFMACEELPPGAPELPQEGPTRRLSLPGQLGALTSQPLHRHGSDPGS
Data set [4] in a line: Inhibition of human wild type SLACK expressed in CHO cells by Whole-cell automated patch clamp assay. It counts as cell-based. For orientation: In patch-clamp work, channel activity is measured electrically.
Data set [5] concerns the target T1, Potassium channel subfamily T member 1 (Homo sapiens, UniProt Q5JUK3).
T1 sequence (Q5JUK3 whole entry): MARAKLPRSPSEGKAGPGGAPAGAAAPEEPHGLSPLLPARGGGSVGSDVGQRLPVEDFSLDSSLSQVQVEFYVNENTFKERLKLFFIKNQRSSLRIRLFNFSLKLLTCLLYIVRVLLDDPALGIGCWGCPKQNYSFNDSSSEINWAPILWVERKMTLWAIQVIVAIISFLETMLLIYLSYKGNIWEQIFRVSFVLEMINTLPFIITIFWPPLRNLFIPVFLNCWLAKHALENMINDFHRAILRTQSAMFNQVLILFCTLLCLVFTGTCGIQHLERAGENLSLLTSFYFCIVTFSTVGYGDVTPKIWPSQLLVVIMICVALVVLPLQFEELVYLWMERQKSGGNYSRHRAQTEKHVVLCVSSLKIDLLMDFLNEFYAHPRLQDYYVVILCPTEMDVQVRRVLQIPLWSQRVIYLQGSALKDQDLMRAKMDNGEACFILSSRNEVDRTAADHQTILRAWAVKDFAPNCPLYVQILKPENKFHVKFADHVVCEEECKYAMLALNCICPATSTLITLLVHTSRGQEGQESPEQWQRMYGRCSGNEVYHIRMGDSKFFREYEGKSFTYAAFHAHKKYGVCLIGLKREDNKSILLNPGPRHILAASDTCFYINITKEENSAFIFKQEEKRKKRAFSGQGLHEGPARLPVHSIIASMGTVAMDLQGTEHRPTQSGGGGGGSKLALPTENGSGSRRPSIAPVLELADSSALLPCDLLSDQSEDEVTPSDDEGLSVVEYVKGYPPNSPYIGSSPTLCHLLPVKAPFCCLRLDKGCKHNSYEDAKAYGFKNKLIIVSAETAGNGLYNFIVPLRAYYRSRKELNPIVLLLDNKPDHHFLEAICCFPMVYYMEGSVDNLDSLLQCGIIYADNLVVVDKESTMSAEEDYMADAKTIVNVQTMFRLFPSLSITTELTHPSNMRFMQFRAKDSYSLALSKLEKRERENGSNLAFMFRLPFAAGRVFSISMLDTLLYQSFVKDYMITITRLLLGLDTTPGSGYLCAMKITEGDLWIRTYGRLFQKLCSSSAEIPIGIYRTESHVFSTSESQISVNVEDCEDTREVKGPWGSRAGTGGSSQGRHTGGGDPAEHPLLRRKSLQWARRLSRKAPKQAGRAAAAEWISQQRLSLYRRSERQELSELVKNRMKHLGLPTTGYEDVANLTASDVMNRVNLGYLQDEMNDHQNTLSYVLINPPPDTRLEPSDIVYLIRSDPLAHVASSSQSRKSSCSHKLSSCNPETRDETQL
The data set is described as follows: Inhibition of wild type human KNa1.1 expressed in HEK293T cells by patch-clamp electrophysiology method. It counts as cell-based.

For orientation: IC50 means the concentration that gives 50% inhibition. Read a low IC50 as greater potency in that assay. Regarding `C=C[C@H]1CN2CC[C@H]1C[C@@H]2[C@@H](O)c1ccnc2ccc(OC)cc12` [QUINIDINE], the IC50 in data set [1] worked out at 89.6 µM. Besides, the Activity in the data set with HEK293 was 103.53%.
As for `NCCNCCCc1c(OCc2ccc(Br)cc2)ccc2ccccc12`, the “inhibition (INH)” value in data set [2] and in data set [3] was “Not Active” each time.
`Cc1ccc2cccc(S(=O)(=O)N3CC(c4nc(-c5ccc(F)cc5)no4)C3)c2n1` showed an IC50 in data set [4] of 0.32 µM.
On to `CC(C)COCC(CN(Cc1ccccc1)c1ccccc1)N1CCCC1` (centres undefined) [BEPRIDIL], for which the results for the IC50 in data set [5] and in data set [1] were 16.3 µM and 6.36 µM, respectively.
Regarding `CN(C)CCCCNCc1c(OCc2ccc(F)cc2)ccc2ccccc12`, the “inhibition (INH)” value in data set [2] was “Not Active”.
The same measure, in the same setting: the value for `CCn1c2c(c3ccccc31)CN(CCCCNCc1c(OCc3ccc(F)cc3)ccc3ccccc13)CC2` was “Not Active”.
